From US6759390B2, “Compounds and their uses” (priority 2000, dated 2004) come the findings set out here.

The test system of assay [1] is lipogenesis. In words: glucose stimulated lipogenesis stimulation. It is filed as cell-based. The following applies: FIG. 3. An excerpt:
(§1) Methods for obtaining A-type and P-type mediators are set out in Caro et al, 1997, and in WO98/11116 and WO98/11117. Protocols for determining characteristic IPG biological activities such as PDH activation, PKA inhibition, acetylCoA activation, fructose-1,6-bis-phosphatase activity and lipogenesis are well known in the art, e.g. as described in Caro et al^[14].
(§2) The compounds of the invention can be tested for one or more the characteristic IPG-P and/or IPG-A activities mentioned above to determine whether they will be suitable for use a IPG mimetics or antagonists. Preferred assays measure the effect of the compounds on PDH phosphatase, PKA or lipogenesis. Protocols for these assays are provided in Caro et al^[14].

In a further assay the test system is PDH phosphatase. Briefly: PDH phosphatase activation. It is filed as biochemical. The following applies: 100 μM.
Source text: as §1, §2

In assay [2] the test system is lipogenesis. Briefly: basal lipogenesis stimulation. The following applies: FIG. 2. Format: cell-based.
Source text: as §1, §2

Another assay relates to PKA. In words: PKA inhibition. It is filed as biochemical.
Source text: as §1, §2

For the compound `N[C@H]1[C@@H](O[C@H]2[C@H](O)[C@H](O)[C@H](O)[C@@H](O)[C@@H]2O)O[C@H](COP(=O)(O)O)[C@@H](O)[C@@H]1O` [RGL1023, O-(2′-amino-2′-deoxy-6′-phosphate-D-glucopyranosyl)-α(1,6)-D-myo-inositol], the “effect on glucose stimulated lipogenesis” value in the assay with lipogenesis [1] was “stimulate lipogenesis”. Besides, the PDH activation in the assay with PDH phosphatase came out at 14%. For the same compound, in the assay on lipogenesis [2], the “effect on basal lipogenesis” value is “stimulate lipogenesis”.

`NC1C(OC2C(O)C(O)C(O)C(O)C2O)OC(CO)C(OP(=O)(O)O)C1O` [RGL1027, O-(2′-amino-2′-deoxy-4′-phosphate-D-glucopyranosyl)-α(1,6)-D-myo-inositol]: the “effect on glucose stimulated lipogenesis” value with lipogenesis [1] is “inhibits lipogenesis”. Also, the values for the PKA inhibition in the assay with PKA (0.1 μM) and in the assay with PKA (10 μM) were 18% and 10%, respectively. The PDH activation in the assay on PDH phosphatase stood at 132%. For the same compound, in the assay on lipogenesis [2], the “effect on basal lipogenesis” value was “inhibits lipogenesis”.

As for `NC1C(OC2C(O)C(O)C(O)C(O)C2O)OC(CO)C(O)C1OP(=O)(O)O` [RGL1029, O-(2′-amino-2′-deoxy-3′-phosphate-D-glucopyranosyl)-α(1,6)-D-myo-inositol], in the assay with lipogenesis [1], the “effect on glucose stimulated lipogenesis” value is given as “stimulate lipogenesis”. For the same compound, the PKA inhibition is reported as 59% in the assay on PKA (0.1 μM) and 33% in the assay with PKA (10 μM). Moreover, the PDH activation in the assay with PDH phosphatase came out at 361%. Besides, the “effect on basal lipogenesis” value in the assay with lipogenesis [2] is given as “stimulate lipogenesis”.

The compound `NC1C(OC2C(O)C(O)C(O)C(O)C2OP(=O)(O)O)OC(CO)C(O)C1O` [RGL1115, 1′-D-6-O-(2′-amino-2′-deoxy-α-D-glucanopyranosyl)-5-O-phosphate-myo-inositol] displayed a PDH activation with PDH phosphatase of 18%.
